Common to all, as to assay type: cell-based
One test addresses T1, CDK2 (Homo sapiens, UniProt P24941).
T1 construct: host or cells: HEK293
The test can be described thus: CDK2 HIBIT PQ (protein quantification), degradation. Conditions: for CDK2 HIBIT PQ Max (%): Max = Maximum; for DC50: PQ = Protein Quantification. Put shortly: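 DC50 and maximal degradation were derived from a HiBiT lytic readout in HEK293 cells carrying HiBiT-tagged CDK2. Cells were seeded in 384-well plates at 1.6×10^5 cells/well in 50 uL of DMEM with 10% FBS, incubated overnight at 37° C and 5% CO2, treated with compound for 6 hours, and then given 20 μL of HiBiT reagent with 20 minutes of shaking at room temperature before an EnVision reading. Wells with 0.1% DMSO served as the high control and wells with medium only as the low control.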

Another test deals with T2, CDK9 (Homo sapiens, UniProt P50750).
T2 construct: host or cells: HEK293
T2 sequence (P50750 whole entry): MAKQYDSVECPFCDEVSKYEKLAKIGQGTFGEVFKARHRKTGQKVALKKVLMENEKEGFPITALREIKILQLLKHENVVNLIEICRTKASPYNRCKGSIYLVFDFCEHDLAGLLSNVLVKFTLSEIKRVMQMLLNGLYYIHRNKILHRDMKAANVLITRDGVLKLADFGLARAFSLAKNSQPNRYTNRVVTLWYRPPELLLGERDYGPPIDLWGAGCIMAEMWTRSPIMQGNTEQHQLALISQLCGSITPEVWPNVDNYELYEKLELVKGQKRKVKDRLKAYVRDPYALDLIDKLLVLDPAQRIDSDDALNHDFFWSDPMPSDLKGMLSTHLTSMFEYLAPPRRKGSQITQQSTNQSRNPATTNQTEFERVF
Briefly: CDK9 HIBIT PQ (protein quantification), degradation. Conditions: for Dmax / CDK9 HIBIT PQ Max (%): Max = Maximum; for DC50: PQ = Protein Quantification. Put shortly: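 HEK293 cells bearing HiBiT-tagged CDK9 were cultured in DMEM with 10% FBS, plated into 384-well plates at 1.6×10^5 cells/well in 50 uL, and left overnight at 37° C and 5% CO2. A HiBiT assay measured CDK9 protein after compound treatment, with 0.1% DMSO-treated cells as the high control and culture medium alone as the low control. These readings gave the maximal degradation, Dmax and DC50.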

Another test has as its target T3, CCNE1 (Homo sapiens, UniProt P24864+P24941).
T3 construct: host or cells: HEK293
The test can be described thus: CCNE1 HIBIT PQ (protein quantification), degradation. The note with it: for CCNE1 HIBIT PQ Max (%): Max = Maximum; for DC50: PQ = Protein Quantification. The method, boiled down:
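HEK293 cells with HiBiT-tagged CCNE1 were cultured in EMEM containing 10% FBS, plated at 1.6×10⁵ cells/well in 50 uL in 384-well plates and left overnight at 37° C with 5% CO₂. After 6 hours of compound exposure, a HiBiT assay measured CCNE1 protein, with 0.1% DMSO-treated cells as the high control and medium alone as the low control. DC50 and maximal degradation came from these readings.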

The values that follow come from patent US20260062426A1, “CYCLIN DEPENDENT KINASE DEGRADERS AND METHODS OF USE THEREOF” (Differentiated Therapeutics Inc, priority 2023, published 2026).

By DC50 is commonly meant the midpoint of the concentration-degradation curve. A low value points to a more potent degrader. A word on the Dmax: it is the largest share of the target that was removed. On to `CC(C)Oc1c(-c2cn[nH]c2)ncn2nc(Nc3ccc(S(=O)(=O)N4CCC[C@H](CN5CC[C@H](c6ccc7c(N8CCC(=O)NC8=O)nn(C)c7c6)CC5(C)C)C4)cc3F)nc12` (relative stereo) [Compound 97, rel-1-(6-((R)-1-(((S)-1-((3-fluoro-4-((8-isopropoxy-7-(1H-pyrazol-4-yl)-[1,2,4]triazolo[1,5-c]pyrimidin-2-yl)amino)phenyl)sulfonyl)piperidin-3-yl)methyl)-2,2-dimethylpiperidin-4-yl)-1-methyl-1H-indazol-3-yl)dihydropyrimidine-2,4(1H,3H)-dione], for which, at CDK2, the “CDK2 HIBIT PQ Max (%)” value was found to be 68% and half-maximal degradation (DC50) was put at 0.6 nM. The compound also had a Dmax at CDK9 of 19%. Further, at CCNE1, the “CCNE1 HIBIT PQ Max (%)” value came out at 41%.
For the compound `CC(C)Oc1c(-c2cn[nH]c2)ncn2nc(Nc3ccc(S(=O)(=O)N4CCCC(CN5CCC(c6ccc7c(N8CCC(=O)NC8=O)nn(C)c7c6)CC5)C4)cc3F)nc12` (single isomer, unassigned) [Compound 94], on CDK2, the “CDK2 HIBIT PQ Max (%)” value turned out to be 92% and the DC50 amounted to 0.3 nM. At CDK9, this compound had a Dmax of 88% and a DC50 of 5.2 nM. Besides, at CCNE1, the “CCNE1 HIBIT PQ Max (%)” value is recorded as 89% and the DC50 worked out at 1.55 nM.
With `CC(C)Oc1c(-c2cn[nH]c2)ncn2nc(Nc3ccc(S(=O)(=O)N4CCCC(CN5CCC(c6ccc7c(N8CCC(=O)NC8=O)nn(C)c7c6)CC5)C4)cc3F)nc12` (single isomer, unassigned) [Compound 95], at CDK2, the “CDK2 HIBIT PQ Max (%)” value amounted to 83% and the DC50 came to 0.5 nM. In addition, on CDK9, the “CDK9 HIBIT PQ Max (%)” value is given as 71% and half-maximal degradation (DC50) was put at 7.24 nM. Also, at CCNE1, the “CCNE1 HIBIT PQ Max (%)” value worked out at 67% and the DC50 was 1.02 nM.
Consider `CC(C)Oc1c(-c2cn[nH]c2)ncn2nc(Nc3ccc(S(=O)(=O)N4CCC[C@H](CN5CC[C@@H](c6ccc7c(N8CCC(=O)NC8=O)nn(C)c7c6)CC5(C)C)C4)cc3F)nc12` (single isomer, unassigned) [Compound 96], for which, at CDK2, the “CDK2 HIBIT PQ Max (%)” value is listed as 87% and it took 1 nM to reach half-maximal degradation (DC50). On CDK9, the Dmax was 80% and the DC50 is 8.05 nM. Also, on CCNE1, the “CCNE1 HIBIT PQ Max (%)” value was found to be 75% and the DC50 was 3.16 nM.
On to `CC(C)Oc1c(-c2cn[nH]c2)ncn2nc(Nc3ccc(S(=O)(=O)c4cccc(C(C)N5CCN(c6ccc7c(N8CCC(=O)NC8=O)nn(C)c7c6)CC5)c4)cc3F)nc12` (single isomer, unassigned) [Compound 98], for which, on CDK2, the “CDK2 HIBIT PQ Max (%)” value turned out to be 95% and the DC50 is 2.3 nM. Further, at CDK9, the Dmax was 78% and half-maximal degradation (DC50) was put at 34.8 nM. For the same compound, on CCNE1, the “CCNE1 HIBIT PQ Max (%)” value stood at 67% and the DC50 stood at 12.7 nM.
As for `CC(C)Oc1c(-c2cn[nH]c2)ncn2nc(Nc3ccc(S(=O)(=O)c4cccc(C(C)N5CCN(c6ccc7c(N8CCC(=O)NC8=O)nn(C)c7c6)CC5)c4)cc3F)nc12` (single isomer, unassigned) [Compound 99], on CDK2, the “CDK2 HIBIT PQ Max (%)” value was 94% and half-maximal degradation (DC50) was put at 3 nM. For the same compound, at CDK9, the “CDK9 HIBIT PQ Max (%)” value amounted to 64% and the DC50 was found to be 37.3 nM. Besides, at CCNE1, the “CCNE1 HIBIT PQ Max (%)” value turned out to be 52% and the DC50 turned out to be 10.2 nM.
Take `CC(C)Oc1c(-c2cn[nH]c2)ncn2nc(Nc3ccc(S(=O)(=O)c4cccc(C(C)N5CCC(c6ccc7c(N8CCC(=O)NC8=O)nn(C)c7c6)CC5)c4)cc3F)nc12` (single isomer, unassigned) [Compound 100]: on CDK2, the “CDK2 HIBIT PQ Max (%)” value is listed as 90% and half-maximal degradation (DC50) was put at 2.9 nM. On CDK9, this compound yielded a Dmax of 86% and a DC50 of 12.4 nM. Also, on CCNE1, the “CCNE1 HIBIT PQ Max (%)” value was determined as 80% and it took 14.3 nM to reach half-maximal degradation (DC50).
With `CC(C)Oc1c(-c2cn[nH]c2)ncn2nc(Nc3ccc(S(=O)(=O)c4cccc(C(C)N5CCC(c6ccc7c(N8CCC(=O)NC8=O)nn(C)c7c6)CC5)c4)cc3F)nc12` (single isomer, unassigned) [Compound 101], at CDK2, the “CDK2 HIBIT PQ Max (%)” value was determined as 90% and half-maximal degradation (DC50) was put at 2.6 nM. Also, on CDK9, the “CDK9 HIBIT PQ Max (%)” value amounted to 82% and the DC50 came out at 10.6 nM. In addition, on CCNE1, the “CCNE1 HIBIT PQ Max (%)” value is 77% and half-maximal degradation (DC50) was put at 13.9 nM.
On to `CC(C)Oc1c(-c2cn[nH]c2)ncn2nc(Nc3ccc(S(=O)(=O)N4CCC[C@H](CN5CC[C@@H](c6ccc7c(N8CCC(=O)NC8=O)nn(C)c7c6)CC5(C)C)C4)cc3F)nc12` (single isomer, unassigned) [Compound 102], for which, on CDK2, the “CDK2 HIBIT PQ Max (%)” value is given as 90% and the DC50 was determined as 0.5 nM. On CDK9, the “CDK9 HIBIT PQ Max (%)” value worked out at 75% and the DC50 was found to be 5.65 nM. Besides, at CCNE1, the “CCNE1 HIBIT PQ Max (%)” value is recorded as 76% and the DC50 amounted to 1.34 nM.
As for `CC(C)Oc1c(-c2cn[nH]c2)ncn2nc(Nc3ccc(S(=O)(=O)N4CCC[C@@H](CN5CC[C@H](c6ccc7c(N8CCC(=O)NC8=O)nn(C)c7c6)CC5(C)C)C4)cc3F)nc12` (single isomer, unassigned) [Compound 103], at CDK2, the “CDK2 HIBIT PQ Max (%)” value was 90% and the DC50 was 1 nM. On CDK9, this compound gave a Dmax of 92% and a DC50 of 4.01 nM. Moreover, at CCNE1, the “CCNE1 HIBIT PQ Max (%)” value is on record as 83% and it took 1.96 nM to reach half-maximal degradation (DC50).
Consider `CC(C)Oc1c(-c2cn[nH]c2)ncn2nc(Nc3ccc(S(=O)(=O)N4CCC[C@H](CN5CC[C@H](c6ccc7c(N8CCC(=O)NC8=O)nn(C)c7c6)CC5(C)C)C4)cc3F)nc12` (single isomer, unassigned) [Compound 104], for which, on CDK2, the “CDK2 HIBIT PQ Max (%)” value was determined as 75% and the DC50 amounted to 1 nM. The Dmax on CDK9 amounted to 13%. Further, the “CCNE1 HIBIT PQ Max (%)” value on CCNE1 amounted to 48%.
For `CC(C)Oc1c(-c2cn[nH]c2)ncn2nc(Nc3ccc(S(=O)(=O)N4CCC[C@@H](CN5CC[C@@H](c6ccc7c(N8CCC(=O)NC8=O)nn(C)c7c6)CC5(C)C)C4)cc3F)nc12` (single isomer, unassigned) [Compound 105], at CDK2, the “CDK2 HIBIT PQ Max (%)” value came to 63% and the DC50 came to 0.9 nM. Further, on CDK9, the Dmax was 25%. For the same compound, the “CCNE1 HIBIT PQ Max (%)” value on CCNE1 turned out to be 24%.
In the case of `CC(C)Oc1c(-c2cn[nH]c2)ncn2nc(Nc3ccc(S(=O)(=O)c4cccc(C[C@H]5C[C@@H](c6ccc7c(c6)CN([C@@H]6CCC(=O)NC6=O)C7=O)C5)c4)cc3F)nc12` (stereo in doubt) [Compound 79, (R)-3-(5-((1r,3S)-3-(3-((3-fluoro-4-((8-isopropoxy-7-(1H-pyrazol-4-yl)-[1,2,4]triazolo[1,5-c]pyrimidin-2-yl)amino)phenyl)sulfonyl)benzyl)cyclobutyl)-1-oxoisoindolin-2-yl)piperidine-2,6-dione], at CDK2, the “CDK2 HIBIT PQ Max (%)” value came to 96% and the DC50 was 5.9 nM. At CDK9, this compound came in with a Dmax of 26%. Besides, at CCNE1, the “CCNE1 HIBIT PQ Max (%)” value is on record as 84% and the DC50 was found to be 13.1 nM.
Taken in the same sequence, the figures for `CC(C)Oc1c(-c2cn[nH]c2)ncn2nc(Nc3ccc(S(=O)(=O)c4cccc(C[C@H]5C[C@H](c6ccc7c(c6)CN([C@@H]6CCC(=O)NC6=O)C7=O)C5)c4)cc3F)nc12` (stereo in doubt) [Compound 80, (R)-3-(5-((1s,3R)-3-(3-((3-fluoro-4-((8-isopropoxy-7-(1H-pyrazol-4-yl)-[1,2,4]triazolo[1,5-c]pyrimidin-2-yl)amino)phenyl)sulfonyl)benzyl)cyclobutyl)-1-oxoisoindolin-2-yl)piperidine-2,6-dione] were 98%, 3.9 nM, 49%, 85% and 20.3 nM.
